From patent publication US20220401414A1, “TREATMENT AND PREVENTION OF A NEURODEGENERATIVE DISORDER” (Inflazome Limited, priority 2019, published 2022)

System: 6-OHDA mouse model of Parkinson's disease
Test: Studies C and D: amphetamine-induced ipsilateral rotations in the 6-OHDA mouse model
Format: in vivo, C57BL6 mice
Conditions: Study D, 3 mg/kg oral daily, day 21 after 6-OHDA (12 μg)
Method: To determine the oral efficacy of the compound of formula (I) in the 6-OHDA mouse model of Parkinson's disease.
8-week-old C57BL6 male mice (obtained from ARC, Perth, Australia) were housed under a 12-h light cycle in a SPF climate-controlled facility with food and water provided ad libitum for two weeks prior to study initiation. For treatment with the compound of formula (I), mice were dosed via oral gavage. Ten (10) mice in each group were dosed at 3 or 1 mg/kg, starting the day before (24 hr prior) stereotaxic surgery, and then QD until sacrifice.
6-OHDA (Sigma) was prepared immediately prior to surgeries. A sterile saline (0.9%) solution containing ascorbic acid (0.2%) was used as the vehicle to dissolve 6-OHDA. […] In order to inject a final concentration of 12 μg into the right striatum, a working stock of 6 mg/ml was made injecting a final volume of 2 μl.
Mice were anaesthetized using ketamine (100 mg/kg, i.p.) and xylazine (10 mg/kg i.p.)
anesthesia and were placed into a stereotactic frame with nose and ear bars specially adapted for mice. The lesion was performed using a 5 μl Hamilton syringe to deliver either vehicle or 6-OHDA (12 μg) at the following coordinates relative to bregma: AP: −1.2 mm; ML: −1.7 mm; DV: 3.5 mm into the right dorsal striatum according to the stereotaxic atlas (“The mouse brain in stereotaxic coordinates” by Paxinos and Franklin, 1997). After drilling a 1 mm burr-hole in the skull, a 2 μl volume of solution was infused at the target site at the rate of 0.5 μl per minute. The needle was held in place for at least 5 minutes after injection to minimize retrograde flow along the needle tract. Mice were administered a subcutaneous injection of sterile Ringer's solution to is facilitate recovery and were placed on a heat-pad until complete recovery from anesthesia.
Amphetamine-induced ipsilateral rotations were performed at day 21 post-surgery. Mice were injected with 2 mg/kg of D-amphetamine and placed in circular glass bowls.
After an acclimatization period of five minutes, the net ipsilateral rotations over ten minutes were recorded and counted. Quantitation was performed from recorded videos by an investigator blinded to the treatment groups.
The aim of study D was to compare the neuroprotective efficacy of the compound of formula (I) with MCC95o in the mouse unilateral 6-OHDA model at 3 mg/kg. The amphetamine-induced ipsilateral rotations and striatal dopamine (DA) levels were assessed, using a protocol identical to that used for study C, with ten (10) mice in each group being dosed at 3 mg/kg for each drug, starting the day before (24 hr prior) stereotaxic surgery, and then daily throughout until sacrifice.

CC(C)(O)c1coc(S(=O)(=O)NC(=O)Nc2c3c(cc4c2CCC4)CCC3)c1 [MCC950, reference compound]
reduction in amphetamine-induced rotations relative to the 6-OHDA untreated group: 55%
